Key:
Format in all cases: in vitro ADME
Conditions in all cases: petasins 20 μM, 60 min
CYP3A1 (rat) = target: T1, CYP3A1 (rat) (Rattus norvegicus, UniProt P04800); test: Metabolism by isolated rat CYP3A1
T1 construct: purchased BD Gentest (Switzerland); host or cells: baculovirus expression system
T1 sequence (P04800 1-504): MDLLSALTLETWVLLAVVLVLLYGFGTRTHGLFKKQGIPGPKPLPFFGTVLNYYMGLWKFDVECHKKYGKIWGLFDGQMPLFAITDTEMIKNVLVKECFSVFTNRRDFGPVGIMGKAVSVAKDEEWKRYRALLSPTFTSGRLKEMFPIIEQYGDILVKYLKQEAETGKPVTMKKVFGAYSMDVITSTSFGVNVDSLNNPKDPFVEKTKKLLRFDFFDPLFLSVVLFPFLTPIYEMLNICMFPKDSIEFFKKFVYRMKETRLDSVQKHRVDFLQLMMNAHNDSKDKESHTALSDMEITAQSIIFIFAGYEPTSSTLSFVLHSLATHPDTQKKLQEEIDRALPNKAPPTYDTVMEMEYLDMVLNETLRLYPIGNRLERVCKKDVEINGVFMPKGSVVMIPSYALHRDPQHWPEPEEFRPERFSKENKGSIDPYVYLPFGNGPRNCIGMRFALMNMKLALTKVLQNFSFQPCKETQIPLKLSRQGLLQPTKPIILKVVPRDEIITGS
Source text: (§1) The metabolism of petasin, isopetasin, and neopetasin was investigated using three different S9 fractions originating from three different species (isolated from rat, dog, and human liver homogenates containing cytochrome P450 isoforms) and isolated cytochromes of two different species (human and rat; rat analogues of the respective human cytochromes were used). For the expression of the different cytochromes, a baculovirus expression system was used according to supplier's manual. The S9 fractions or respectively single P450 cytochromes were used to mimic the liver metabolism by in vitro incubation.
(§2) The assay was carried out in triplicate in 1.5 ml glass vials with a final concentration of 20 μM of petasin, isopetasin, and neopetasin. The incubation was performed in a 37°C warm water bath. S9 fractions were thawed slowly on ice. […]
(§3) A mixture of NADPH regeneration systems A (20‐fold) and B (100‐fold), phosphate buffer, and H2O was added, preincubated at 37°C, and shaken gently for 5 min. […] The supernatant was transferred to high‐performance liquid chromatography vials and analyzed by ultra‐performance liquid chromatography mass spectrometry (UPLC/MS). […]

CYP2C9 (human) = target: T2, CYP2C9 (human) (Homo sapiens, UniProt P11712); test: Metabolism by isolated human CYP2C9
T2 construct: purchased BD Gentest (Switzerland); host or cells: baculovirus expression system
Source text: as §1, §2, §3

CYP2D6 (human) = target: T3, CYP2D6 (human) (Homo sapiens, UniProt P10635); test: Metabolism by isolated human CYP2D6
T3 construct: purchased BD Gentest (Switzerland); host or cells: baculovirus expression system
Source text: as §1, §2, §3

T2 sequence (P11712 whole entry): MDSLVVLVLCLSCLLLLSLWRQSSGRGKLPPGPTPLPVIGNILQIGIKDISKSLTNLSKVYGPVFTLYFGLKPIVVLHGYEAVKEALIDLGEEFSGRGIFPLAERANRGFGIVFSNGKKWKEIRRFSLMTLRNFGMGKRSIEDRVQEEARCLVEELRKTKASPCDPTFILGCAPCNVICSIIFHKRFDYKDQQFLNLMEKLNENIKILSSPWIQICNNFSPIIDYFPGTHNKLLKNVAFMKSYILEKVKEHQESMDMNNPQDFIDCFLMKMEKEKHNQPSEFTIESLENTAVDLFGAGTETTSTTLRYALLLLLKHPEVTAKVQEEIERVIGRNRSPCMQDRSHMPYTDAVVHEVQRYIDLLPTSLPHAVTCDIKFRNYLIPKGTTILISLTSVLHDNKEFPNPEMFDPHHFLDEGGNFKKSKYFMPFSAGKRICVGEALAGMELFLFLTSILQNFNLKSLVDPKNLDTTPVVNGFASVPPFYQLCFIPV
T3 sequence (P10635 whole entry): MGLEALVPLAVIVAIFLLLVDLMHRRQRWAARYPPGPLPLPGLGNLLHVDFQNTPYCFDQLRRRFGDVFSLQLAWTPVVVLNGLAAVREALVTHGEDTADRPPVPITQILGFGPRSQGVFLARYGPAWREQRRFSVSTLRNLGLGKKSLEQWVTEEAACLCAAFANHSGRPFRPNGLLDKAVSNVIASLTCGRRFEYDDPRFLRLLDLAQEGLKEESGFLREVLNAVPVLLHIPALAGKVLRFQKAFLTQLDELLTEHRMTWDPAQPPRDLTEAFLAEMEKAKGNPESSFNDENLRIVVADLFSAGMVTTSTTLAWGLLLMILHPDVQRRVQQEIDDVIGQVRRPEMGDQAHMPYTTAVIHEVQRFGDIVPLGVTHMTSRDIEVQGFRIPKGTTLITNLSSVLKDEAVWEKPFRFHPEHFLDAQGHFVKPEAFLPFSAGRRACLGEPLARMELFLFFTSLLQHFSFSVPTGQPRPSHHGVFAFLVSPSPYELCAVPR

C=C(C)[C@H]1C[C@@]2(C)C(=CC1=O)CC[C@@H](OC(=O)/C(C)=C\C)[C@@H]2C [neopetasin]
extent of metabolism by CYP3A1 (rat) (CYP3A1 (rat)): 78%

C=C(C)[C@@H]1C[C@@]2(C)C(=CC1=O)CC[C@@H](OC(=O)/C(C)=C\C)[C@@H]2C [petasin]
extent of metabolism by CYP2C9 (human) (CYP2C9 (human)): 51%
extent of metabolism by CYP2D6 (human) (CYP2D6 (human)): 80.2%
extent of metabolism by CYP3A1 (rat) (CYP3A1 (rat)): 37%
